# Values quoted from earlier work as cited in US20180255771A1, “CONTROLLED GAS PHASE RELEASE OF NON AQUEOUS PHASE LIQUID ESSENTIAL OIL COMPOUNDS FOR AROMATHERAPY, FRAGRANCE AND INSECTICIDAL ACTIVITY” (priority 2015, published 2018).
# Columns and labels:
# Ixodes ricinus = details: for repellency to Ixodes ricinus compared with DEET: 10 ug dose; for repellency to Ixodes ricinus: 1 ug dose
# [1] = USEPA conclusion
# [2] = at 20° C.
SMILES,repellency to Ixodes ricinus compared with DEET (Ixodes ricinus),repellency to Ixodes ricinus (Ixodes ricinus),further results
"C=CCc1cc(OC)c(O)c(OC)c1 [4-Allyl-2,6-dimethoxyphenol]",as repellent as DEET,,
"CCc1ccc(O)c(O)c1 [4-Ethyl-1,2-benzenediol]",as repellent as DEET,statistically significantly more repellent,
"Cc1ccc(O)c(O)c1 [4-Methyl-1,2-benzenediol]",as repellent as DEET,,
"CCN(CC)C(=O)c1cccc(C)c1 [DEET, N,N-diethyl-meta-toluamide]",,not reported to be effective,risks to humans or the environment [1]: will generally not cause unreasonable risks; vapor pressure [2]: 0.0056 mm Hg
C=CCc1ccc(O)c(OC)c1 [eugenol],,,"repelling ticks (Ixodes ricinus) compared with DEET (Ixodes ricinus; 100 ug dose, DEET at a 100 ug dose): as effective at repelling ticks"
